Earlier results as cited in patent publication US6537592B2, “Extracts of kava-kava” (Kava Pharmaceuticals, Inc., priority 2000, dated 2003).

Conditions: at 21° C., water

In the case of COC1=CC(=O)O[C@@H](/C=C/c2ccccc2)C1 [kawain], the maximum solubility is given as “about 2.2 mg/100 ml water”.
